Results on one compound are retold here after article PMC4967059, “Efficient 9α-hydroxy-4-androstene-3,17-dione production by engineered Bacillus subtilis co-expressing Mycobacterium neoaurum 3-ketosteroid 9α-hydroxylase and B. subtilis glucose 1-dehydrogenase with NADH regeneration” (SpringerPlus, 2016).

The assay addresses T1, KshB (Mycolicibacterium neoaurum, UniProt D2Y640).
T1 construct: gene kstR; pMA5-kshB primer R1 carries no His-tag
Kind of assay: dichlorophenolindophenol reduction assay. Type of assay: biochemical. The conditions noted are these: 0.25 mM NADH, 0.1 mM 2,6-dichlorophenolindophenol, 50 mM Tris-HCl pH 7.0, room temperature; electron donor; data not shown.

T1 sequence (D2Y640 entry or part of it): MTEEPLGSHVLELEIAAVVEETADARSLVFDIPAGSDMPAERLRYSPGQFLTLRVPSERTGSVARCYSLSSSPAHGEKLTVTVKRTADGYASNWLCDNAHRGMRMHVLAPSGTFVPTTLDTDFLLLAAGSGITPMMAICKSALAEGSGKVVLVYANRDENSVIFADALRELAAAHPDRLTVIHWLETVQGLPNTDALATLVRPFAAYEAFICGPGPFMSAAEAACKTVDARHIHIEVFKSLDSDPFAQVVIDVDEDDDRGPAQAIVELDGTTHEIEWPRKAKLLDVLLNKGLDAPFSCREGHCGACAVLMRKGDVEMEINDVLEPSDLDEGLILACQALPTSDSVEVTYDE

For `NC(=O)C1=CN([C@@H]2O[C@H](COP(=O)(O)OP(=O)(O)OC[C@H]3O[C@@H](n4cnc5c(N)ncnc54)[C@H](O)[C@@H]3O)[C@@H](O)[C@H]2O)C=CC1` [NADH], the dichlorophenolindophenol reduction assay result was “accepts electrons from NAD(P)H and transfers it to oxygenase component KshA”.
